Tests used:
cancer and normal cells = assay: Cell viability assay; type: cell-based, human; conditions: 72 h
HSA = HSA (Homo sapiens, UniProt P02768); assay: Interaction between avasimibe and HSA; type: binding; conditions: avasimibe:HSA molar ratio 16:1, warfarin:HSA 10:1, warfarin fluorescence
PC3 = assay: Cell viability assay; type: cell-based; conditions: Homo sapiens, PC-3, 72 h, read-out: IC50 of avasimin (containing avasimibe)
[1] = Blood bioavailability of avasimibe; type: in vivo, mice; conditions: nude, mouse, whole blood, po
[2] = Tissue distribution of avasimibe in PC3 tumor-bearing mice; type: in vivo; conditions: oral avasimibe 15 mg/kg, 2 hr
PC3 tumors = assay: Anti-tumor effect, PC3 tumor xenograft; conditions: oral avasimibe 15 mg/kg daily by gavage, versus PBS

HSA, sequence (P02768 25-609): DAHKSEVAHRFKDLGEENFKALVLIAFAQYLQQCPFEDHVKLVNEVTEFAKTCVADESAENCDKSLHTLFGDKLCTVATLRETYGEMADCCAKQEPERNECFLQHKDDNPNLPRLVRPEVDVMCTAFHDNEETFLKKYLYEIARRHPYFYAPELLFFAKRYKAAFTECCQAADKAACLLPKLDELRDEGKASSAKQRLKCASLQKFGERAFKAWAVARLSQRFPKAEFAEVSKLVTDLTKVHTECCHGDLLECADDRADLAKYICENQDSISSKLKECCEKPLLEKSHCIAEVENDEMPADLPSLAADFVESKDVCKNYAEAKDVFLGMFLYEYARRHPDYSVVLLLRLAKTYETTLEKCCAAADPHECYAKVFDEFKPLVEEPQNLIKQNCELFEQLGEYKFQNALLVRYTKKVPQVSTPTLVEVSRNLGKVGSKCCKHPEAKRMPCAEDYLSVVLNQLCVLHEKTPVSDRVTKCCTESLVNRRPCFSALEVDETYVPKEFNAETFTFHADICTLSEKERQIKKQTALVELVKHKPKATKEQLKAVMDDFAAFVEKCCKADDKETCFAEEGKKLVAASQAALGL

| replacement of warfarin at the primary binding site (site I) of HSA (HSA) | IC50 (PC3) | AUC ([1]; 15 mg/kg) | AUC ([1]; 100 mg/kg) | avasimibe in the tumor tissue [2] | SMILES | effect on viability of cancer and normal cells (cancer and normal cells) | distribution of avasimibe to liver [2] | excretion of avasimibe through feces [2] | anti-tumor effect in terms of tumor volume (PC3 tumors) |
| --- | --- | --- | --- | --- | --- | --- | --- | --- | --- |
|  |  |  |  |  | N.N.[Cl][Pt][Cl] [cisplatin] | non-selective cytotoxic effects |  |  |  |
| complete replacement of warfarin | 8.5 µM | 14900 ng·h/mL | 49900 ng·h/mL | not detectable | CC(C)c1cc(C(C)C)c(CC(=O)NS(=O)(=O)Oc2c(C(C)C)cccc2C(C)C)c(C(C)C)c1 [avasimibe] |  | most orally administered avasimibe was found in the liver tissue | considerable amount of avasimibe was excreted through the feces | did not exhibit anti-tumor effect |
|  |  |  |  |  | Nc1ccn([C@@H]2O[C@H](CO)[C@@H](O)C2(F)F)c(=O)n1 [gemcitabine] | non-selective cytotoxic effects |  |  |  |
